Experimental data published in PubChem BioAssay AID192 (DTP/NCI, 2004).
Toxic doses and inconclusive results are not listed. Square brackets hold non-standard residues; d marks the D form. Peptide text beside a SMILES is read from it. ξ: configuration not given here. Ac5c = NC1(C(=O)O)CCCC1; ξS = NC(CO)C(=O)O

Tested on: BDF1 mice, B16 melanoma ip, median survival T/C
Experiment: NCI In Vivo Anticancer Drug Screen. Data for tumor model B16 Melanoma (intraperitoneal) in B6D2F1 (BDF1) mice
Settings: endpoint: median survival time, higher = longer survival
Summary of the method: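 Values are ratios of treated (T) to vehicle-control (C) measurements of survival or tumor size in tumor-bearing mice.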

[1] = dose: 100.0 mg/kg/injection, schedule: Q01DX009 (ip), vehicle: saline with Tween-80
[2] = dose: 200.0 mg/kg/injection, schedule: Q01DX009 (ip), vehicle: saline with Tween-80
[3] = dose: 400.0 mg/kg/injection, schedule: Q01DX009 (ip), vehicle: saline with Tween-80
[4] = dose: 25.0 mg/kg/injection, schedule: Q01DX009 (ip), vehicle: saline with Tween-80
[5] = dose: 50.0 mg/kg/injection, schedule: Q01DX009 (ip), vehicle: saline with Tween-80
[6] = dose: 50.0 mg/kg/injection, schedule: Q01DX009 (ip), vehicle: Klucel (hydroxypropylcellulose) (HPC)
[7] = dose: 100.0 mg/kg/injection, schedule: Q01DX009 (ip), vehicle: Klucel (hydroxypropylcellulose) (HPC)

In the case of `CC(=O)Oc1cccc(C#N)c1`, the T/C [1] is reported as 108 % of control, the T/C [2] is reported as 112 % of control and the T/C [3] is reported as 91 % of control.

With `OCc1ccc[n+](CCc2c[nH]c3ccccc23)c1` the T/C [4] was 102 % of control, the T/C [5] was 99 % of control and the T/C [1] was 102 % of control.

For `O=C(Oc1ccc(Cl)cc1)c1ccc(Cl)cc1`, the T/C (dose: 75.0 mg/kg/injection, schedule: Q04DX003 (ip), vehicle: Klucel (hydroxypropylcellulose) (HPC)) was 100 % of control.

In the case of `O=C(CCN1CCCCCCC1)c1cccc([N+](=O)[O-])c1`, the T/C [6] is reported as 100 % of control and the T/C [7] is reported as 97 % of control.

With `COCc1cc(C(C)(C)C)c(O)c(C(C)(C)C)c1` the T/C [7] was 90 % of control, the T/C (dose: 200.0 mg/kg/injection, schedule: Q01DX009 (ip), vehicle: Klucel (hydroxypropylcellulose) (HPC)) was 92 % of control and the T/C (dose: 400.0 mg/kg/injection, schedule: Q01DX009 (ip), vehicle: Klucel (hydroxypropylcellulose) (HPC)) was 95 % of control.

In the case of `[Cl][Pt+2][Cl].[NH-]CC1(C[NH-])CCC1`, the T/C (dose: 1.2 mg/kg/injection, schedule: Q01DX009 (ip), vehicle: carboxymethylcellulose (CMC)) is reported as 159 % of control, the T/C (dose: 2.4 mg/kg/injection, schedule: Q01DX009 (ip), vehicle: carboxymethylcellulose (CMC)) is reported as 168 % of control and the T/C (dose: 3.6 mg/kg/injection, schedule: Q01DX009 (ip), vehicle: carboxymethylcellulose (CMC)) is reported as 169 % of control.

In the case of `CC(=O)Oc1cccc(C)c1`, the T/C [2] is reported as 106 % of control.

For `CCc1nc(N)nc(N)c1-c1ccc(Cl)c(Cl)c1`, the T/C (dose: 4.0 mg/kg/injection, schedule: Q01DX009 (ip), vehicle: Klucel (hydroxypropylcellulose) (HPC)) was 95 % of control, the T/C (dose: 8.0 mg/kg/injection, schedule: Q01DX009 (sc), vehicle: Klucel (hydroxypropylcellulose) (HPC)) was 123 % of control and the T/C (dose: 64.0 mg/kg/injection, schedule: Q01DX001 (ip), vehicle: Klucel (hydroxypropylcellulose) (HPC)) was 102 % of control.

With `CC1(C)N=C(N)N=C(N)N1c1ccc(CCC(=O)Nc2ccc(S(=O)(=O)F)cc2)c(Cl)c1` the T/C (dose: 6.25 mg/kg/injection, schedule: Q01DX009 (ip), vehicle: saline) was 104 % of control and the T/C (dose: 12.5 mg/kg/injection, schedule: Q01DX009 (ip), vehicle: saline) was 108 % of control.

In the case of `CCN(CC)C(N)=S`, the T/C (dose: 100.0 mg/kg/injection, schedule: Q04DX003 (ip), vehicle: Klucel (hydroxypropylcellulose) (HPC)) is reported as 102 % of control, the T/C (dose: 200.0 mg/kg/injection, schedule: Q04DX003 (ip), vehicle: Klucel (hydroxypropylcellulose) (HPC)) is reported as 95 % of control and the T/C (dose: 400.0 mg/kg/injection, schedule: Q04DX003 (ip), vehicle: Klucel (hydroxypropylcellulose) (HPC)) is reported as 97 % of control.

`NC(CO)C(=O)NC1(C(=O)O)CCCC1` (stereo unspecified) (H-[ξS]-[Ac5c]-OH) was tested, and the T/C (dose: 100.0 mg/kg/injection, schedule: Q04DX003 (ip), vehicle: saline with Tween-80) was 123 % of control, the T/C (dose: 133.0 mg/kg/injection, schedule: Q04DX003 (ip), vehicle: saline with Tween-80) was 122 % of control and the T/C (dose: 300.0 mg/kg/injection, schedule: Q04DX003 (ip), vehicle: saline with Tween-80) was 117 % of control. For the same compound, the T/C (dose: 400.0 mg/kg/injection, schedule: Q04DX003 (ip), vehicle: saline with Tween-80) was 100 % of control.

For `NC(CNC(=O)CBr)C(=O)O` (stereo unspecified), the T/C (dose: 6.25 mg/kg/injection, schedule: Q01DX009 (ip), vehicle: water) was 109 % of control, the T/C (dose: 12.5 mg/kg/injection, schedule: Q01DX009 (ip), vehicle: water) was 104 % of control and the T/C (dose: 25.0 mg/kg/injection, schedule: Q01DX009 (ip), vehicle: water) was 122 % of control.

With `CCOC(=O)c1[nH]cnc1/N=N/N(C)CCO` the T/C (dose: 12.5 mg/kg/injection, schedule: Q01DX009 (ip), vehicle: carboxymethylcellulose (CMC)) was 104 % of control, the T/C (dose: 25.0 mg/kg/injection, schedule: Q01DX009 (ip), vehicle: carboxymethylcellulose (CMC)) was 118 % of control and the T/C (dose: 50.0 mg/kg/injection, schedule: Q01DX009 (ip), vehicle: carboxymethylcellulose (CMC)) was 95 % of control. The T/C (dose: 100.0 mg/kg/injection, schedule: Q01DX009 (ip), vehicle: carboxymethylcellulose (CMC)) was 100 % of control and the T/C (dose: 200.0 mg/kg/injection, schedule: Q01DX009 (ip), vehicle: carboxymethylcellulose (CMC)) was 113 % of control.

For `O=C(N/N=C\c1ccc(N(CCCl)CCCl)cc1)c1cccnc1`, the T/C (dose: 100.0 mg/kg/injection, schedule: Q01DX009 (ip), vehicle: gum acacia) was 91 % of control, the T/C (dose: 200.0 mg/kg/injection, schedule: Q01DX009 (ip), vehicle: gum acacia) was 102 % of control and the T/C (dose: 400.0 mg/kg/injection, schedule: Q01DX009 (ip), vehicle: gum acacia) was 102 % of control.

In the case of `NNC(=O)NO`, the T/C (dose: 12.5 mg/kg/injection, schedule: Q01DX009 (ip), vehicle: saline with Tween-80) is reported as 102 % of control and the T/C [4] is reported as 121 % of control.

In the case of `CN(C)N=Nc1c(Cl)cccc1Cl`, the T/C (dose: 18.75 mg/kg/injection, schedule: Q01DX009 (ip), vehicle: Klucel (hydroxypropylcellulose) (HPC)) is reported as 101 % of control and the T/C (dose: 37.5 mg/kg/injection, schedule: Q01DX009 (ip), vehicle: Klucel (hydroxypropylcellulose) (HPC)) is reported as 105 % of control.

`CCOc1ccc(N2C(=O)CSC2=S)cc1` was tested, and the T/C (dose: 12.5 mg/kg/injection, schedule: Q01DX009 (ip), vehicle: Klucel (hydroxypropylcellulose) (HPC)) was 103 % of control, the T/C (dose: 25.0 mg/kg/injection, schedule: Q01DX009 (ip), vehicle: Klucel (hydroxypropylcellulose) (HPC)) was 91 % of control and the T/C [6] was 95 % of control.

`C=C(Cl)CN(CCCC(=O)O)c1cccc(OC)c1` was tested, and the T/C (dose: 100.0 mg/kg/injection, schedule: Q04DX003 (ip), vehicle: other) was 104 % of control, the T/C (dose: 200.0 mg/kg/injection, schedule: Q04DX003 (ip), vehicle: other) was 96 % of control and the T/C (dose: 400.0 mg/kg/injection, schedule: Q04DX003 (ip), vehicle: other) was 94 % of control.

`COC1/C=C/O[C@@]2(C)Oc3c(C)c(O)c4c(O)c(cc(O)c4c3C2=O)NC(=O)/C(C)=C\C=C\[C@H](C)C(O)[C@@H](C)[C@@H](O)[C@@H](C)[C@H](OC(C)=O)[C@@H]1C` (stereo partly specified) was tested, and the T/C [5] was 89 % of control, the T/C [1] was 100 % of control and the T/C [2] was 95 % of control.

In the case of `COC(=O)C(N)Cc1ccc(O)c(O)c1` (stereo unspecified), the T/C (dose: 25.0 mg/kg/injection, schedule: Q08HX018 (ip), vehicle: water) is reported as 122 % of control, the T/C (dose: 50.0 mg/kg/injection, schedule: Q08HX018 (ip), vehicle: water) is reported as 111 % of control and the T/C (dose: 50.0 mg/kg/injection, schedule: Q08HX030 (ip), vehicle: saline) is reported as 99 % of control. For the same compound, the T/C (dose: 100.0 mg/kg/injection, schedule: Q01DX012 (ip), vehicle: saline) was 102 % of control, the T/C (dose: 100.0 mg/kg/injection, schedule: Q01DX014 (ip), vehicle: saline) was 102 % of control and the T/C (dose: 100.0 mg/kg/injection, schedule: Q08HX018 (ip), vehicle: water) was 110 % of control. For the same compound, the T/C (dose: 100.0 mg/kg/injection, schedule: Q08HX030 (ip), vehicle: saline) was 104 % of control, the T/C (dose: 200.0 mg/kg/injection, schedule: Q01DX012 (ip), vehicle: saline) was 104 % of control and the T/C (dose: 200.0 mg/kg/injection, schedule: Q01DX014 (ip), vehicle: saline) was 104 % of control. The T/C (dose: 200.0 mg/kg/injection, schedule: Q08HX018 (ip), vehicle: water) was 113 % of control, the T/C (dose: 200.0 mg/kg/injection, schedule: Q08HX030 (ip), vehicle: saline) was 111 % of control and the T/C (dose: 400.0 mg/kg/injection, schedule: Q01DX012 (ip), vehicle: saline) was 120 % of control. For the same compound, the T/C (dose: 400.0 mg/kg/injection, schedule: Q01DX014 (ip), vehicle: saline) was 118 % of control and the T/C (dose: 400.0 mg/kg/injection, schedule: Q08HX030 (ip), vehicle: saline) was 107 % of control.

For `NCCN`, the T/C (dose: 177.0 mg/kg/injection, schedule: Q01DX009 (ip), vehicle: saline) was 115 % of control, the T/C (dose: 266.0 mg/kg/injection, schedule: Q01DX009 (ip), vehicle: saline) was 96 % of control and the T/C (dose: 400.0 mg/kg/injection, schedule: Q01DX009 (ip), vehicle: saline) was 105 % of control.

In the case of `N#CC(Br)C(N)=O` (stereo unspecified), the T/C (dose: 2.5 mg/kg/injection, schedule: Q01DX009 (ip), vehicle: saline) is reported as 93 % of control and the T/C (dose: 5.0 mg/kg/injection, schedule: Q01DX009 (ip), vehicle: saline) is reported as 94 % of control.

`CO[C@H]1C[C@@H]2CC[C@@H](C)[C@@](O)(O2)C(=O)C(=O)N2CCCC[C@H]2C(=O)O[C@H]([C@H](C)C[C@@H]2CC[C@@H](O)[C@H](OC)C2)CC(=O)[C@H](C)C=C(C)[C@@H](O)[C@@H](OC)C(=O)[C@H](C)C[C@H](C)/C=C/C=C/C=C1C` was tested, and the T/C (dose: 190.0 mg/kg/injection, schedule: Q01DX001 (ip), vehicle: saline with Tween-80) was 159 % of control, the T/C [2] was 110 % of control and the T/C (dose: 380.0 mg/kg/injection, schedule: Q01DX001 (ip), vehicle: saline with Tween-80) was 112 % of control. The T/C [3] was 109 % of control and the T/C (dose: 760.0 mg/kg/injection, schedule: Q01DX001 (ip), vehicle: saline with Tween-80) was 123 % of control.
